Legend:
human 5-HT6 receptor [1] = target: T1, human 5-HT6 receptor (Homo sapiens (Human), UniProt P50406); assay: Cell-based functional assay measuring cAMP production (HTRF); details: for Emax: agonist mode, relative to 10 μM 5-HT Emax control, read-out: Emax (agonism); for functional activity at the human 5HT6 receptor: cell based assay
Description: Compounds were further diluted to 4× assay concentrations with serum free media containing IBMX. […] Cells were lysed by addition of HTRFTM reagents (CisBio International) and after another 30 minute incubation, the plates were read on an AnalystGT (MDS) or SynergyHT (BioTek) microplate reader. […] Antagonist activity was expressed as the ratio of cAMP produced in a test well to the average cAMP produced in the EC80 challenge control wells. Agonist activity was determined after a full 30 minutes of incubation at room temperature, using 10 μM 5-HT as the Emax control. Cells were lysed by addition of HTRFTM reagents (CisBio International) and after another 30 minute incubation, the plates were read on an AnalystGT (MDS) or SynergyHT (BioTek) microplate reader. […] Agonist activity was expressed as the ratio of cAMP produced in a test well to the average cAMP produced in the Emax control wells. All cell-based experiments were performed in duplicate using ten concentrations of test compound with 5-HT (agonist mode) or a known antagonist (antagonist mode) included as additional controls in every run. […] For antagonists, the apparent dissociation constant (Kb) was calculated using a modified Cheng-Prusoff equation: Kb=IC50/([…][…])), where A=concentration of reference agonist in the assay and E[…]=EC50 value of the reference agonist.

human 5-HT6 receptor [2] = target: T1, human 5-HT6 receptor; assay: 5-HT6 radioligand binding assay (SPA format, [N-methyl-3H]-LSD); details: human 5-HT6 receptor membranes, 10 nM [N-methyl-3H]-LSD; Ki by Cheng-Prusoff; read-out: human 5HT6 Ki
Procedure, shortened: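 Human 5-HT6 receptor membranes were incubated overnight at room temperature with 10 nM [N-methyl-3H]-LSD and competitor in 50 mM Tris-HCl pH 7.5, 5 mM MgCl2, 1 mM EDTA, 4% DMSO, read by SPA. Nonspecific binding was defined with 100 μM 5-HT. IC50 came from ten-point duplicate curves; Ki via Cheng-Prusoff.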

T1 sequence (P50406 whole entry): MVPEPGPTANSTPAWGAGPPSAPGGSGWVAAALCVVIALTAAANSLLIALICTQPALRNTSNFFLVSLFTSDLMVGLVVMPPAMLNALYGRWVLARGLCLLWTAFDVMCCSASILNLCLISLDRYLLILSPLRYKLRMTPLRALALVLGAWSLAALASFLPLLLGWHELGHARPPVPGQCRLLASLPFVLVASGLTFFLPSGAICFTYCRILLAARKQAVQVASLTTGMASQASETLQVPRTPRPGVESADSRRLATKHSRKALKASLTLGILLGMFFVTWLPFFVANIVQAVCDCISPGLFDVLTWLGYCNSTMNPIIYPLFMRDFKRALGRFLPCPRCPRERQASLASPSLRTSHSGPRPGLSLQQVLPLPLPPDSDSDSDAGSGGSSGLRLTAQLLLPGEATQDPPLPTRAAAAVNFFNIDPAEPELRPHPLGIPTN

SMILES	Emax (human 5-HT6 receptor [1])	functional activity at the human 5HT6 receptor (human 5-HT6 receptor [1])	Ki (human 5-HT6 receptor [2])
Cl.O=S(=O)(c1ccc(OC(F)(F)F)cc1)c1cc(Cl)c2oc3c(c2c1)CNCC3 [Example 112]	19%	weak partial agonists	4.9 nM
Cl.O=S(=O)(c1ccc(C(F)(F)F)cc1)c1cc(Cl)c2oc3c(c2c1)CNCC3 [Example 111]	27%	weak partial agonists	3.3 nM

From patent US9067949B2, “Benzofuro[3,2-c] pyridines and related analogs as serotonin sub-type 6 (5-HT6) modulators for the treatment of obesity, metabolic syndrome, cognition and schizophrenia” (Albany Molecular Research, Inc., priority 2011, dated 2015)
